Measured values published in publication PMC9864848, “A Study of the Interaction between Xanthine Oxidase and Its Inhibitors from Chrysanthemum morifolium Using Computational Simulation and Multispectroscopic Methods” (Metabolites, 2023).
Where two headings read alike, the source gives them in different places.

Key:
xanthine oxidase = target: T1, xanthine oxidase (Bos taurus, UniProt P80457); test: Xanthine oxidase (XO) inhibitory assay; type: biochemical, Bovine; details: read-out: XO inhibition (%)
T1 construct: purchased Roche Diagnostics (Mannheim, Germany)
Description: A total of 100 μL of test samples containing dimethyl sulfoxide (100 μg/mL) and 0.1 U/mL xanthine oxidase (100 µL) were added to a 0.05 M potassium phosphate buffer (1.3 mL, pH 7.5). The mixture was then incubated at 25 °C for 10 min. A 1 mL of 0.15 mM xanthine was added into the solution, then incubated at 30 °C for 10 min. […] The percentage of XO inhibition was calculated as follows: Inhibition (%)=Absorbancenegative control−Absorbancesample/Absorbancenegative control×100% Absorbancenegative control = Absorbance of the negative control (without inhibitors) Absorbancesample = Absorbance of the solution containing test samples

XO [1] = target: T2, XO (Bos taurus, UniProt P80457); test: Fluorescence quenching assay of XO; type: binding, Bovine; details: pH 7.5; for Kd: Modified Stern-Volmer association constant Ka
T2 construct: purchased Roche Diagnostics (Mannheim, Germany)
Description: The assay was carried out by referring to a previous method with slight modifications. […] Titrations were performed manually and mixed carefully. […] The excitation wavelength was set at 280 nm, and the excitation and emission slits were 5 nm. The fluorescence background was corrected by subtracting the relevant blanks corresponding to the potassium phosphate buffer (pH 7.5).
To distinguish the mechanism of quenching various inhibitors on XO, the fluorescence quenching output was analyzed by applying the Stern-Volmer equation [34]: F0/F=1+KSV[Q]=1+Kqτ0[Q] where F0 and F represent the steady-state fluorescence intensities of XO in the absence and presence of the respective inhibitor. KSV is the Stern-Volmer quenching constant, determined from the slope of the linear regression of F0/F against the [Q] plot. [Q] represents the concentration of the inhibitor.
Then, Ka values for the inhibitor-XO complex at three different temperatures were calculated from the linear regression of F0/(F0 − F) against 1/[Q].

XO [2] = target: T2, XO; test: Circular dichroism (CD) analysis of XO secondary structure; design: species or system Bovine
Description: The analysis was carried out according to a modified method. […] The measurement was performed in potassium phosphate buffer (pH 7.5) at room temperature. […] The JASCO SSE (Secondary Structure Estimation) software was used to analyze the CD spectroscopic data with Reed’s reference to obtain the data of various secondary structures of XO with respective ligands.

XO [3] = details: cited from earlier work
[4] = molar ratio XO:inhibitor 1:5, pH 7.5 (free XO 15.4)
[5] = molar ratio XO:inhibitor 1:5, pH 7.5 (free XO 19.7)
[6] = molar ratio XO:inhibitor 1:5, pH 7.5 (free XO 65.0)
[7] = molar ratio XO:inhibitor 1:10, pH 7.5 (free XO 15.4)
[8] = molar ratio XO:inhibitor 1:10, pH 7.5 (free XO 19.7)
[9] = molar ratio XO:inhibitor 1:10, pH 7.5 (free XO 65.0)
[10] = at 100 μg/mL, mean ± SEM, n = 3
[11] = previous study, read-out: IC50 (XO inhibitory effect)

T1 sequence (P80457 whole entry): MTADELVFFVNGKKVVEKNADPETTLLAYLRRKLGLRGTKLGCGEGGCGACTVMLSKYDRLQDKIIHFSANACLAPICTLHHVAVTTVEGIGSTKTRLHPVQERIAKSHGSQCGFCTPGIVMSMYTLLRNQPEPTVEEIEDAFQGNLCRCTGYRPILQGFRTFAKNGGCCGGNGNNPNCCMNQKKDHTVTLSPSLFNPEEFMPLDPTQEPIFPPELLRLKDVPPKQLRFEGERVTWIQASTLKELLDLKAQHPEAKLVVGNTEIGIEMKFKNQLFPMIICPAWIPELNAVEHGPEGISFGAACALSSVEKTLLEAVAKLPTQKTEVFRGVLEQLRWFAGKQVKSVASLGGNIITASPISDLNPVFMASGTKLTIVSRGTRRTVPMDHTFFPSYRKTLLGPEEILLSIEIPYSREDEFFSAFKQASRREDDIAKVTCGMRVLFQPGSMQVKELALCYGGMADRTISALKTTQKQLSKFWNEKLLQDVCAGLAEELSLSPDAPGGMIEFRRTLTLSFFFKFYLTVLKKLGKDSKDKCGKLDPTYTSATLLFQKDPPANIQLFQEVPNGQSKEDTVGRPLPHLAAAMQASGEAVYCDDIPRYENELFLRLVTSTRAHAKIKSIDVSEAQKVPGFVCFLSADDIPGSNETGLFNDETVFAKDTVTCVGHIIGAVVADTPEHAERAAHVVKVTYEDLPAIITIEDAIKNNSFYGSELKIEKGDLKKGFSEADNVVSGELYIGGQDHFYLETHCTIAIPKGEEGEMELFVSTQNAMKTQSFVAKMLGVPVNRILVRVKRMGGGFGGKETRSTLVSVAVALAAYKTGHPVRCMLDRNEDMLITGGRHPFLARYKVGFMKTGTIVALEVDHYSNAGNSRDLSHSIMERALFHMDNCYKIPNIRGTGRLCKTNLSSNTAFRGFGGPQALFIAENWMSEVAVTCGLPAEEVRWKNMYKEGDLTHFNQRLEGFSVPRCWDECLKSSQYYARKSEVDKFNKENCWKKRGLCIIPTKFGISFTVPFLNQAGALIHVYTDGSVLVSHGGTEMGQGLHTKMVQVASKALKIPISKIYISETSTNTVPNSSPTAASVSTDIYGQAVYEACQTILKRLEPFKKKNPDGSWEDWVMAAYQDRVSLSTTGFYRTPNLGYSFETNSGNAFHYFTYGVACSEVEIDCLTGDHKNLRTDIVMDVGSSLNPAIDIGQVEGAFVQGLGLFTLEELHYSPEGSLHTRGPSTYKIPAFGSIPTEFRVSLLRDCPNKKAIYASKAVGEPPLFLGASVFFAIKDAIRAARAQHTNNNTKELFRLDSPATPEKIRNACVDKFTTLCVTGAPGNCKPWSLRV
T2 sequence (P80457 whole entry): as above

SMILES	inhibition at 100 µg/mL (xanthine oxidase)	Quenching constant KSV (XO [1]; 298 K)	Quenching rate constant Kq (XO [1]; 298 K)	Quenching constant KSV (XO [1]; 304 K)	Quenching rate constant Kq (XO [1]; 304 K)	Quenching constant KSV (XO [1]; 310 K)	Quenching rate constant Kq (XO [1]; 310 K)	Kd (XO [1]; 298 K)	Kd (XO [1]; 304 K)	Kd (XO [1]; 310 K)	Random Coil (%) of XO (XO [2]; [4])	α-Helix (%) of XO (XO [2]; [5])	β-Sheet (%) of XO (XO [2]; [6])	Random Coil (%) of XO (XO [2]; [7])	α-Helix (%) of XO (XO [2]; [8])	β-Sheet (%) of XO (XO [2]; [9])	XO inhibitory potency (in words) (XO [3]; ref 28 (Mohos et al.))	inhibition at 100 µg/mL (xanthine oxidase; [10])	IC50 (XO [3]; [11])	IC50 (XO [3]; ref 27 (Chang et al.), read-out: IC50 (XO inhibition))
COc1cc(CC(=O)O)ccc1O [Homovanillic acid, homovanillic acid]	30 ± 2.18%	49100 L/mol	1.754e+13 M⁻¹ s⁻¹	93100 L/mol	3.325e+13 M⁻¹ s⁻¹	698800 L/mol	2.4957e+14 M⁻¹ s⁻¹	5.61 µM	2.67 µM	4.15 µM	0.0%	36.3%	63.7%	27.0%	5.1%	67.9%	less potent inhibitor of XO	–	–	–
Oc1ncnc2[nH]ncc12 [Allopurinol, allopurinol, reference compound]	96.5 ± 2.4%	–	–	–	–	–	–	–	–	–	–	–	–	–	–	–	–	–	–	–
O=c1c(O)c(-c2ccc(O)cc2)oc2cc(O)cc(O)c12 [Kaempferol, kaempferol]	–	97700 L/mol	3.489e+13 M⁻¹ s⁻¹	396400 L/mol	1.416e+14 M⁻¹ s⁻¹	277900 L/mol	9.925e+13 M⁻¹ s⁻¹	–	–	–	11.2%	17.1%	71.7%	34.2%	0.0%	65.8%	–	81.9 ± 3.31%	2.18 ± 0.02 µM	–
O=C(O)/C=C/c1ccccc1 [Trans-cinnamic acid, trans-cinnamic acid]	–	180000 L/mol	6.429e+13 M⁻¹ s⁻¹	282300 L/mol	1.008e+14 M⁻¹ s⁻¹	278400 L/mol	9.943e+13 M⁻¹ s⁻¹	8.02 µM	3.62 µM	3.49 µM	0.0%	36.4%	63.6%	22.7%	10.4%	66.9%	–	57.6 ± 6%	–	> 200 µM
O=c1cc(-c2ccc(O)cc2)oc2cc(O)cc(O)c12 [Apigenin, apigenin]	–	130200 L/mol	4.65e+13 M⁻¹ s⁻¹	332400 L/mol	1.187e+14 M⁻¹ s⁻¹	182100 L/mol	6.504e+13 M⁻¹ s⁻¹	5.33 µM	3.5 µM	4.3 µM	22.2%	10.8%	67.0%	0.0%	36.7%	63.3%	–	56.6 ± 1.77%	3.2 µM	–
